This data set can be described thus: Solubility of resveratrol in trilaureth-4 phosphate, judged by visual observation of transparency. Also noted: key to Solubility: +: partially; from + = partially to +++ = fully soluble; +++: fully soluble. To be noted: for Solubility: 40° C. Type of data set: physicochemical. How it is done: To evaluate solubility of resveratrol in trilaureth-4 phosphate, the following procedure was adopted: lab glass beakers of 250 ml capacity were filled with the phosphate ester surfactant in the range as indicated in Table 1. The final volume was 50 ml. Solubilization occurs almost instantaneously, however the beakers were vigorously shaken for about 1 minute at 6000 rpm. Level of solubility was judged by visual observation of transparency.

As to `Oc1ccc(/C=C/c2cc(O)cc(O)c2)cc1` [Resveratrol, 5-[(1E)-2-(4-hydroxyphenyl)ethenyl]-1,3-Benzenediol], for the setting “in trilaureth-4 phosphate”, the “threshold level of solubility” value was “around 10%”. Besides, the “solubility in the emulsifier” value (in trilaureth-4 phosphate, room temperature) is recorded as “solubilizes well”. Besides, the Solubility entry is listed as “+++” (resveratrol 2 wt.-% in trilaureth-4 phosphate 98 wt.-%); “+++” (resveratrol 4 wt.-% in trilaureth-4 phosphate 96 wt.-%); “+++” (resveratrol 6 wt.-% in trilaureth-4 phosphate 94 wt.-%); “+++” (resveratrol 8 wt.-% in trilaureth-4 phosphate 92 wt.-%); “+++” (resveratrol 10 wt.-% in trilaureth-4 phosphate 90 wt.-%); “++” (resveratrol 12 wt.-% in trilaureth-4 phosphate 88 wt.-%).

(Values after patent publication US9254252B2, “Compounds” (DSM IP ASSETS B.V., priority 2011, dated 2016).)
